For experiment [1], the system named is Karpas 299 lymphoma cell line positive for the oncogenic fusion protein NPM-ALK. Nature of the experiment: Tritiated thymidine uptake cell proliferation assay, Karpas 299. Format: cell-based. Particulars: Homo sapiens. As for the experimental part: (§1) Method: Tritiated Thymidine Uptake Cell Proliferation Assay
(§2) The following procedure was used with parent untransformed BaF3 cells, BaF3 cells transformed with the oncogenic fusion protein NPM/ALK, NPM/ALK positive SUDHL-1 cells, NPM/ALK positive SUPM2, ALK-negative HL60 cells, NPM/ALK positive KARPAS-299 cells. The parent untransformed BaF3 cells or Alk-negative HL60 cells are used as controls. Cells were seeded in U-bottomed 96-well plates at 10000 cells/well in a volume of 100 μl in supplemented medium. In the case of the parent untransformed BaF3 cells, the medium was supplemented with IL-3. Serial dilutions of inhibitors were added to the appropriate wells and volumes adjusted to 200 μl. Controls were treated with the equivalent volume of vehicle, DMSO, alone. Plates were incubated at 37° C. for 72 h. 3[H]-thymidine (1 μCi/well) was added for the last 16 h of incubation. Cells were harvested on to paper filters and 3[H]-thymidine incorporation was measured using a scintillation counter (1430 MicroBeta, Wallac, Turku, Finland). The 50% inhibitory concentration (IC50) was defined as the concentration of inhibitor, expressed in nanomolar units, that gave a 50% decrease in 3[H]-thymidine uptake compared with controls.
In Table 1 are listed results for selected examples of compounds of the invention, reported as percentage of inhibition of cell proliferation at 200 nM, obtained from cellular assays in Karpas 299 lymphoma cell line positive for the oncogenic fusion protein NPM-ALK.

Experiment [2] addresses T1, BaF3 cell line transfected with the oncogenic fusion protein NPM-ALK and expressing the mutation L1196M (Homo sapiens, UniProt Q9UM73, L1196M, cells depend on it).
T1 construct: fused on or other part: P06748 (Nucleophosmin)
Nature of the experiment: Tritiated thymidine uptake cell proliferation assay, BaF3 NPM-ALK L1196M. Format: cell-based, murine. Particulars: for GI50: averaged IC50 values of cell proliferation inhibition, class letters, read-out: IC50 BaF3 NPM-ALK L1196M cells; for % Inhibition BaF3 NPM-ALK L1196M cells: percentage of inhibition of cell proliferation at 200 nM. As for the experimental part: as §1, §2
In Table 2 are listed results for selected examples of compounds of the invention, reported as percentage of inhibition of cell proliferation at 200 nM, obtained from cellular assays in BaF3 cell line transfected with the oncogenic fusion protein NPM-ALK and expressing the mutation L1196M.
In Table 3 are listed averaged IC50 values of cell proliferation inhibition for selected examples of compounds of the present invention, obtained from cellular assays in BaF3 cell line transfected with the oncogenic fusion protein NPM-ALK and expressing the mutation L1196M. The letter “A” designates an IC50 value between 1 nM and 50 nM, the letter “B” designates an IC50 value between 50 nM and 100 nM, the letter “C” designates an IC50 value between 100 and 500 nM.

Setting [3] is: KARPAS-299, percentage of inhibition of cell proliferation at 200 nM, read-out: % Inhibition Karpas 299 cells.

Results on 8 compounds are retold here after US10336707B2, “Heterocyclic derivatives modulating activity of certain protein kinases” (EUDENDRON S.R.L., priority 2014, dated 2019).

Like-named read-outs stand apart in the source and are kept apart here.

T1 sequence (Q9UM73 whole entry L1196M, the tested form may be a part): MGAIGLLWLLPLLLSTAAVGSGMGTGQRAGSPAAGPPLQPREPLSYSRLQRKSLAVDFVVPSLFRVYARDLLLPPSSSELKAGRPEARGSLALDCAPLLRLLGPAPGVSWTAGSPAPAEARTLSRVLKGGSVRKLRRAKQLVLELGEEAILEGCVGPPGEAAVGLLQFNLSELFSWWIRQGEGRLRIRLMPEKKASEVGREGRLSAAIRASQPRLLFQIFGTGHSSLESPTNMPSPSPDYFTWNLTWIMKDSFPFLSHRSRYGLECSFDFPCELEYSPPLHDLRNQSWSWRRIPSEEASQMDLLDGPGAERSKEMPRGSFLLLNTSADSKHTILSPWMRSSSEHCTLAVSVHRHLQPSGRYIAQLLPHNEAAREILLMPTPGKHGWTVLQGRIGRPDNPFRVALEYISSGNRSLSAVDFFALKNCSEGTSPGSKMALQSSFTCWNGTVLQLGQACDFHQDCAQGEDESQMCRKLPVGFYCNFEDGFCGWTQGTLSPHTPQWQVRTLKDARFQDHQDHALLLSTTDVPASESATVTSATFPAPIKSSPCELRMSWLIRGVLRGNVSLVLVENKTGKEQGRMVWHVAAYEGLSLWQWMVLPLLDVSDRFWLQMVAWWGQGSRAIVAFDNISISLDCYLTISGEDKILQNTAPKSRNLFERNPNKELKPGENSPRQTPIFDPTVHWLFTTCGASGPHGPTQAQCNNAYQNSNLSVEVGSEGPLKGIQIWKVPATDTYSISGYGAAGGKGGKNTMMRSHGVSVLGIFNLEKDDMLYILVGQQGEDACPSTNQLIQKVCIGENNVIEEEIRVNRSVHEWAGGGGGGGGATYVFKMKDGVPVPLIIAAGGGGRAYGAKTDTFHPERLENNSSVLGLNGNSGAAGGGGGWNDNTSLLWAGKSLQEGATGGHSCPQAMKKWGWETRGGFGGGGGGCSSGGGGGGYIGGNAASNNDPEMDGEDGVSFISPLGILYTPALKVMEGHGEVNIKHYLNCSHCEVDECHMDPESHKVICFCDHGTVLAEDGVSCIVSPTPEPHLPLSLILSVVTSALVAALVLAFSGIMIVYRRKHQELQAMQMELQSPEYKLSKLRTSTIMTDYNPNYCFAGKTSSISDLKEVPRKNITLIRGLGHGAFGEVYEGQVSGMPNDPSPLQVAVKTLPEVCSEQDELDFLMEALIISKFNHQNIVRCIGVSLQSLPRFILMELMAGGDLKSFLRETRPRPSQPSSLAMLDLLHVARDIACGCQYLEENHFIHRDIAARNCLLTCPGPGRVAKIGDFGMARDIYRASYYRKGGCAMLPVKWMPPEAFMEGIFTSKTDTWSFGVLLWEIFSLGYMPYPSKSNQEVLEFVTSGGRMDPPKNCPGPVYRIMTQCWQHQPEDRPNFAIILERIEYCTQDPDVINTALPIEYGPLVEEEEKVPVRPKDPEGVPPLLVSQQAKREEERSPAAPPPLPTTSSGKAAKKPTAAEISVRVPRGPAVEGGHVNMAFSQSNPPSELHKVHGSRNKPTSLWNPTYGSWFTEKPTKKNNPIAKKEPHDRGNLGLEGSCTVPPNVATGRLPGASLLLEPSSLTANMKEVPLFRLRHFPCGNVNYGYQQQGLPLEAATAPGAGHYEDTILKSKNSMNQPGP

Usually inhibition stands for the percentage by which the read-out fell short of the control. For `CN1CCN(c2ccc(C(=O)Nc3n[nH]c4cc(-c5ccc(O)cc5)c(Cc5cc(F)cc(F)c5)cc34)cc2)CC1` [Example 33, N-[5-[(3,5-difluorophenyl)methyl]-6-(4-hydroxyphenyl)-1H-indazol-3-yl]-4-(4-methylpiperazin-1-yl)benzamide], the inhibition at 0.2 µM in experiment [1] (KARPAS-299, read-out: % Inhibition Karpas 299 cells) was found to be 100%. Besides, in experiment [2], the GI50 was 1 to 50 nM and the “% Inhibition BaF3 NPM-ALK L1196M cells” value is listed as 99%.

As for `Cc1cc(-c2cc3[nH]nc(NC(=O)c4ccc(N5CCN(C)CC5)cc4NC4CCOCC4)c3cc2Cc2cc(F)cc(F)c2)ccc1O` [Example 21, N-[5-[(3,5-difluorophenyl)methyl]-6-(4-hydroxy-3-methyl-phenyl)-1H-indazol-3-yl]-4-(4-methylpiperazin-1-yl)-2-(tetrahydropyran-4-ylamino)benzamide], the inhibition at 0.2 µM in experiment [1] (setting [3]) came out at 100%. Besides, in experiment [2], the GI50 lay within 1 to 50 nM and the “% Inhibition BaF3 NPM-ALK L1196M cells” value is given as 99%.

Consider `CN1CCN(c2ccc(C(=O)Nc3n[nH]c4cc(-c5cnn(C(C)(C)CO)c5)c(Cc5cc(F)cc(F)c5)cc34)c(NC3CCOCC3)c2)CC1` [Example 15, N-[5-[(3,5-difluorophenyl)methyl]-6-[1-(2-hydroxy-1,1-dimethyl-ethyl)pyrazol-4-yl]-1H-indazol-3-yl]-4-(4-methylpiperazin-1-yl)-2-(tetrahydropyran-4-ylamino)benzamide], for which the inhibition at 0.2 µM in experiment [1] (setting [3]) amounted to 100%. In experiment [2], the GI50 was 50 to 100 nM and the “% Inhibition BaF3 NPM-ALK L1196M cells” value is reported as 100%.

`CN1CCN(c2ccc(C(=O)Nc3n[nH]c4cc(-c5cc[nH]c(=O)c5)c(Cc5cc(F)cc(F)c5)cc34)c(NC3CCOCC3)c2)CC1` [Example 16, N-[5-[(3,5-difluorophenyl)methyl]-6-(2-oxo-1H-pyridin-4-yl)-1H-indazol-3-yl]-4-(4-methylpiperazin-1-yl)-2-(tetrahydropyran-4-ylamino)benzamide]: the inhibition at 0.2 µM in experiment [1] (setting [3]) was 88%.

In the case of `CN1CCN(c2ccc(C(=O)Nc3n[nH]c4cc(-c5ccc(O)cc5C(F)(F)F)c(Cc5cc(F)cc(F)c5)cc34)c(NC3CCOCC3)c2)CC1` [Example 9, N-[5-[(3,5-difluorophenyl)methyl]-6-[4-hydroxy-2-(trifluoromethyl)phenyl]-1H-indazol-3-yl]-4-(4-methylpiperazin-1-yl)-2-(tetrahydropyran-4-ylamino)benzamide], the inhibition at 0.2 µM in experiment [1] (setting [3]) came to 100%. In addition, in experiment [2], the GI50 is 1 to 50 nM and the “% Inhibition BaF3 NPM-ALK L1196M cells” value came to 99%.

For `CN1CCN(c2ccc(C(=O)Nc3n[nH]c4cc(-c5cccc(CO)c5)c(Cc5cc(F)cc(F)c5)cc34)c(NC3CCOCC3)c2)CC1` [Example 13, N-[5-[(3,5-difluorophenyl)methyl]-6-[3-(hydroxymethyl)phenyl]-1H-indazol-3-yl]-4-(4-methylpiperazin-1-yl)-2-(tetrahydropyran-4-ylamino)benzamide], in experiment [2], the GI50 fell in the range of 100 to 500 nM and the “% Inhibition BaF3 NPM-ALK L1196M cells” value is 97%.

Turning to `COc1cccc(-c2cc3[nH]nc(NC(=O)c4ccc(N5CCN(C)CC5)cc4NC4CCOCC4)c3cc2Cc2cc(F)cc(F)c2)c1` [Example 24, N-[5-[(3,5-difluorophenyl)methyl]-6-(3-methoxyphenyl)-1H-indazol-3-yl]-4-(4-methylpiperazin-1-yl)-2-(tetrahydropyran-4-ylamino)benzamide], in experiment [2], the “% Inhibition BaF3 NPM-ALK L1196M cells” value is reported as 52%.

On to `CNC(=O)c1ccc(-c2cc3[nH]nc(NC(=O)c4ccc(N5CCN(C)CC5)cc4NC4CCOCC4)c3cc2Cc2cc(F)cc(F)c2)cc1` [Example 20, N-[5-[(3,5-difluorophenyl)methyl]-6-[4-(methylcarbamoyl)phenyl]-1H-indazol-3-yl]-4-(4-methylpiperazin-1-yl)-2-(tetrahydropyran-4-ylamino)benzamide], for which the “% Inhibition BaF3 NPM-ALK L1196M cells” value in experiment [2] is 57%.
